Read-outs that look alike come from different tables or passages of the source.
Experiments:
[1] = test system: MGC-803 (human gastric cancer cells); assay: Antiproliferative activity (SRB / CCK-8 assay); format: cell-based; conditions: mean ± SD
Method: (§1) MCF-7, MGC-803, Hela and HepG-2 cell lines were cultured in a base medium (90% DMEM and 10% FBS), A549 and U937 were cultured in a base medium (90% PRMI-1640 and 10% FBS) at 37 °C, 5% CO2 and a saturated humidity atmosphere. All the mediums were supplemented with 10% FBS and 1% […]/streptomycin (all cells were purchased from Shanghai Institutes for Biological Sciences, Chinese Academy of Sciences, Shanghai, China).
(§2) A549, MGC-803, MCF-7, HepG2 and Hela cells were seeded at the appropriate cell line density (3 × 10^3 to 4 × 10^3 cells/well). The cells were then incubated at 37 °C for 24 h in a humidified 5%CO2 in 96-well plates prior to experiments. After a further 72 h of incubation, cell proliferation was quantified with SRB ([…]) to determine the number of surviving cells. The absorbance at 560 nm was measured by microplate. The experiment was repeated three times, and the data were listed in the form of mean and standard deviation.
(§3) MGC-803 cells were collected and seeded into 96 well plates at a density of 8000/well. The mediums containing drugs and cell suspension were added into the well. The cells were incubated in 5% CO2 incubator at 37 °C for 72 h. Each well was added 10 µL CCK8 solution, and the incubation time was 3–4 h. The absorbance value at 450 nm was measured by microplate reader. Data are calculated with GraphPad Prism5 software.

[2] = test system: U937 (human leukaemia cells); assay: Antiproliferative activity (CCK-8 assay); format: cell-based; conditions: U-937, mean ± SD, three separated experiments, 72 h
Method: as §1, §3

MGC-803 cells = assay: Cell cycle distribution (PI, flow cytometry); format: cell-based, human
Text: Most inhibitors of microtubule polymerisation are able to block mitosis in G2/M phase, which ultimately leads to apoptosis by disrupting tubulin-microtubule balance. To elucidate whether the cytotoxicity of 4c was due to cell cycle arrest, flow cytometry analysis and PI marking method were used to evaluate the effects of 4c on the MGC-803 cell cycle distribution. […] A significant difference was also observed when we further evaluated its effects using different time points (Figure 5(C,D)). MGC-803 cells treated with 4c (36 nM) can be arrested in the G2/M phase from 30.37% at 6 h to 45.37% at 24 h.
MGC-803 cells (15 × 10^4 cells/well) were inoculated in 6-well plates and incubated at 37 °C for 24 h, and then treated with 4c (18, 36, 72nΜ). The collected cells were washed with cold PBS and then fixed in 75% ethanol in PBS at −20 °C overnight. The cells were then washed twice with PBS buffer and then stained with 500 μL of […] (PI, 5 mg) staining solution […] for 15 min in the dark. Samples were immediately assayed for DNA content using a flow cytometer (Becton, Dickinson and Company, USA). The percentage of cell cycle phases was analysed by the software provided in the instrument.

[3] = test system: human normal cells (LO2, 293T, macrophage) versus MGC-803; assay: Selectivity of growth inhibition, human normal cells versus MGC-803; format: cell-based
Method: The effect of compound 4c on three types of normal human cell lines including LO2 (human hepatocyte cells), 293 T (human embryonic kidney cell) and THP-1-derived macrophages was then determined.

[4] = test system: six human cancer cell lines (MCF-7, MGC-803, HepG2, Hela, A549, U937); assay: Antiproliferative activity, summary over the tested cancer cell lines; format: cell-based; conditions: read-out: IC50
Method: as §2, §3

ROS in MGC-803 cells = assay: Intracellular ROS generation (DCFH-DA, flow cytometry); format: cell-based, human; conditions: 72 nM, 48 h, control 0.17%
Method: It is now generally accepted that mitochondrial dysfunction is the main source of elevated ROS levels, accompanied by changes in mitochondrial membrane potential and activation of downstream Caspases. To further evaluate the alterations of intracellular ROS levels after cells exposed to 4c, flow cytometry was analysed with 2′,7′-Dichlorodihydrofluorescein diacetate (DCFH-DA) as fluorescent probe. As shown in Figure 7(B), 4c induced intracellular ROS generation in a dose-dependent manner. […] According to above-mentioned results, we can deduce that 4c induced cell apoptosis through a variety of ways including the disruption of the mitochondrial membrane potential, accumulation of intracellular ROS level and regulation of apoptosis-related proteins expression in cancer cells.
Load the probe and dilute DCFH-DA with serum-free culture medium at 1:1000 to a final concentration of […]. Spread the cultured cells in a 6-well plate with about 1.5 × 10^5 cells per well and incubate overnight at 37 °C. After 48 h of incubation with 4c (18, 36, 72nΜ) the cell culture medium was removed and diluted DCFH-DA was added and incubated for 20 min at 37 °C in an incubator, and the mixture was inverted every 3–5 min. […] Add 200 μL of PBS for resuspension, place on ice, and subsequently assay by flow cytometry using standard procedures.

tubulin = assay: Tubulin polymerisation assay in vitro; format: biochemical; conditions: 6 µM of 4c; colchicine 4 µM as positive control; fluorescence intensity
Method: The microtubule kinetic experiments were performed with 4 µM of colchicine as a positive control and 6 µM of 4c as the experimental group according to the method originally described by J. M. Andreu et al. with some modifications. Purified and unpolymerised tubulin was incubated with the tested compounds and the increased tendency of fluorescence intensity shown in control samples was obviously slowed down.

[5] = test system: p-Cdc2, CyclinB1 and P21 in MGC-803 cells; assay: Western blot of G2/M regulatory proteins; format: cell-based, human; conditions: 18, 36, 72 nM, 48 h
Text: Cdc2 kinase, a member of Ser/Thr protein family, is considered as a driving force of G2/M transition. Activation of Cdc2 catalysed the phosphorylation of a variety of substrate proteins, thus promoting cell transition from G2 phase to M phase. Cyclin B1 plays a vital role to control cell transition from G2 to M phase. P21 also effectively regulates cell cycle progress by increasing the intracellular G2/M phase ratio. Therefore, the expression of cell cycle checkpoint protein was investigated.
The protein levels in MGC-803 cells were assessed via western blot analysis. Exponentially growing MGC-803 cells were seeded at a density of 6 × 10^5/dishes and incubated overnight. Then 18, 36, 72nΜ of 4c were added in triplicate for 48 h incubation. After the cells were washed with cold PBS, the supernatant was removed. The supernatant was collected by centrifuging at 12,000 g for 10 min at 4 °C. The protein concentration in the supernatant was determined by using a BSA protein assay kit. Samples were prepared in SDS-PAGE loading buffer after BSA analysis to quantify proteins, then boiled for 10 min at 100 °C. Western blot analyses were conducted after separation by SDS-PAGE electrophoresis and transfer to nitrocellulose filter (NC) membranes. Immunoblotting was performed according to the antibody manufacturers’ recommendations.

COc1cc(C(=O)/C(F)=C/c2c[nH]c3cc(Br)ccc23)cc(OC)c1OC [4c, (Z)-3–(6-bromo-1H-indol-3-yl)-2-fluoro-1–(3,4,5-trimethoxyphenyl)prop-2-en-1-one]
IC50 ([1]; Table 2, triplicate): 57 ± 6 nM
IC50 ([1]; three separated experiments, 72 h): 57.1 ± 6 nM
IC50 [2]: 25 ± 1 nM
percentage of cells in G2/M (MGC-803 cells; 18 nM, control 32.15%): 50.47%
percentage of cells in G2/M (MGC-803 cells; 36 nM, 6 h): 30.37%
percentage of cells in G2/M (MGC-803 cells; 36 nM, control 32.15%): 83.65%
percentage of cells in G2/M (MGC-803 cells; 72 nM, control 32.15%): 90.21%
selectivity ratio towards MGC-803 cells and macrophage cells [3]: up to 21.2 folds
IC50 ([4]; against five of the tested cell lines, range): 25 to 202 nM
IC50 ([4]; against six cell lines, range as worded in text): 25 to 254 nM
FITC-A+ (ratio of DCF positive cells) (ROS in MGC-803 cells): 93.6%
Effect on tubulin polymerisation in vitro (tubulin): exhibited a similar action to that of colchicine
Cyclin B1 expression [5]: caused a decrease in Cyclin B1
P21 expression [5]: increased the expression of tumour suppressor protein P21
phosphorylation levels of Cdc2 [5]: decrease the phosphorylation levels of Cdc2 in a concentration-dependent manner
